{
  "source": "patent US9580390B2",
  "about": "“Indazole compounds as kinase inhibitors and method of treating cancer with same” (University Health Network, priority 2011, dated 2017)",
  "key": {"[1]": {"target": "T1, human TTK (Homo sapiens, UniProt P33981)", "T1 construct": "amino terminal GST fusion of full length human TTK; purchased Invitrogen", "T1 sequence (P33981 1-857)": "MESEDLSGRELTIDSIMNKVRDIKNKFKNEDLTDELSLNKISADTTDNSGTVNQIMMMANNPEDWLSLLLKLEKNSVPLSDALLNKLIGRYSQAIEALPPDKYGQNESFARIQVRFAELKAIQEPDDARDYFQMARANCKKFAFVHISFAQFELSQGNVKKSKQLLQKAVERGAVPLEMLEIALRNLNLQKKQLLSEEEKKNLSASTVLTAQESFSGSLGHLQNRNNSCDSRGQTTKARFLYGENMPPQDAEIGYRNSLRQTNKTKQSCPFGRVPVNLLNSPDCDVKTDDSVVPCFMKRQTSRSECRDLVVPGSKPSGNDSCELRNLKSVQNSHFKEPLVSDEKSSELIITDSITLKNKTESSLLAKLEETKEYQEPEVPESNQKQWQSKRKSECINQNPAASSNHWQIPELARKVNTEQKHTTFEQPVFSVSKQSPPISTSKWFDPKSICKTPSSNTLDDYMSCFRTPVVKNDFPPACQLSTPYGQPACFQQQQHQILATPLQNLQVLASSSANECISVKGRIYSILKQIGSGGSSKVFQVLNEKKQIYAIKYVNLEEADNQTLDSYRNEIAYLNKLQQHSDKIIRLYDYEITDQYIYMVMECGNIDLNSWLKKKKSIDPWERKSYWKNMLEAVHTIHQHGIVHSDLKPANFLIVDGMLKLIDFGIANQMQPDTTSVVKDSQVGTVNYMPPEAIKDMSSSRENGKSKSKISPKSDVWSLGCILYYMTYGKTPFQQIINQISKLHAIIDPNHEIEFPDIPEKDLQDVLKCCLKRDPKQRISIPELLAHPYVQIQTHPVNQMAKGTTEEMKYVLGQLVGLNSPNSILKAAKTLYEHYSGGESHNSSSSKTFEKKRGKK", "assay": "TTK inhibition assay (indirect ELISA)", "type": "biochemical", "conditions": "read-out: TTK IC50 Range"}, "[2]": {"tested_on": "colon cancer cells (HCT116)", "assay": "Cancer cell line growth inhibition (SRB assay)", "type": "cell-based", "conditions": "read-out: Cancer Cell Line GI50 Range HCT116"}, "[3]": {"tested_on": "ovarian cancer cells (PA-1)", "assay": "Cancer cell line growth inhibition (SRB assay)", "type": "cell-based", "conditions": "read-out: Cancer Cell Line GI50 Range PA-1"}, "[4]": {"conditions": "Homo sapiens, HCT-116, HCT116 colon cancer cells, SRB assay"}, "[5]": {"conditions": "PA-1 ovarian cancer cells, SRB assay"}},
  "note": "Read-outs that look alike come from different tables or passages of the source.",
  "data": [
    {"smiles": "CC(C)C(NC(=O)c1ccc2[nH]nc(-c3ccc(OC4CC5CCC(C4)N5C)cc3)c2c1)c1ccccn1", "note": "(stereo not drawn) [Example A396, N-(2-methyl-1-(pyridin-2-yl)propyl)-3-(4-((8-methyl-8-azabicyclo [3.2.1]octan-3-yl)oxy)phenyl)-1H-indazole-5-carboxamide]", "values": [
      {"measurement": "IC50", "setting": "[1]", "result": "< 100", "unit": "nM"},
      {"measurement": "GI50", "setting": "[2]; HCT116", "result": "< 100", "unit": "nM"},
      {"measurement": "GI50", "setting": "[3]; PA-1", "result": "< 100", "unit": "nM"}
    ]},
    {"smiles": "CC(C)[C@H](NC(=O)c1ccc2[nH]nc(-c3ccc(OC4CCN(CCO)CC4)cc3)c2c1)c1ccccc1Cl", "note": "[Example A232, (S)-N-(1-(2-chlorophenyl)-2-methylpropyl)-3-(4-((1-(2-hydroxyethyl)piperidin-4-yl)oxy)phenyl)-1H-indazole-5-carboxamide]", "values": [
      {"measurement": "IC50", "setting": "[1]", "result": "< 100", "unit": "nM"},
      {"measurement": "GI50", "setting": "[2]; Homo sapiens, HCT-116", "result": "< 100", "unit": "nM"},
      {"measurement": "GI50", "setting": "[3]; Homo sapiens, PA-1", "result": "< 100", "unit": "nM"}
    ]},
    {"smiles": "CN1CCC(Oc2ccc(-c3n[nH]c4ccc(C(=O)NCC5(c6ccccc6)CCOCC5)cc34)cc2)CC1", "note": "[Example A473, 3-(4-((1-methylpiperidin-4-yl)oxy)phenyl)-N-((4-phenyltetrahydro-2H-pyran-4-yl)methyl)-1H-indazole-5-carboxamide]", "values": [
      {"measurement": "IC50", "setting": "[1]", "result": "< 100", "unit": "nM"},
      {"measurement": "GI50", "setting": "[2]; [4]", "result": "100 to 500", "unit": "nM"},
      {"measurement": "GI50", "setting": "[3]; [5]", "result": "100 to 500", "unit": "nM"}
    ]},
    {"smiles": "CN1C2COCC1CC(Oc1ccc(-c3n[nH]c4ccc(C(=O)NC(c5ccccn5)C5CCCC5)cc34)cc1)C2", "note": "[Example A392, N-(cyclopentyl (pyridin-2-yl)methyl)-3-(4-(((1R,5S,7s)-9-methyl-3-oxa-9-azabicyclo [3.3.1]nonan-7-yl)oxy)phenyl)-1H-indazole-5-carboxamide]", "values": [
      {"measurement": "IC50", "setting": "[1]", "result": "< 100", "unit": "nM"},
      {"measurement": "GI50", "setting": "[2]; Homo sapiens, HCT-116", "result": "< 100", "unit": "nM"},
      {"measurement": "GI50", "setting": "[3]; Homo sapiens, PA-1", "result": "< 100", "unit": "nM"}
    ]},
    {"smiles": "CN1CCC(Oc2ccc(-c3n[nH]c4ccc(C(=O)NCC5(c6ccccn6)CCCCC5)cc34)cc2)CC1", "note": "[Example A474, 3-(4-((1-methylpiperidin-4-yl)oxy)phenyl)-N-((1-(pyridin-2-yl)cyclohexyl)methyl)-1H-indazole-5-carboxamide]", "values": [
      {"measurement": "IC50", "setting": "[1]", "result": "< 100", "unit": "nM"},
      {"measurement": "GI50", "setting": "[2]; [4]", "result": "100 to 500", "unit": "nM"},
      {"measurement": "GI50", "setting": "[3]; [5]", "result": "100 to 500", "unit": "nM"}
    ]},
    {"smiles": "O=C(NCC1(N2CCOCC2)CCCCC1)c1ccc2[nH]nc(-c3ccc(O[C@@H]4CCC[C@H](O)C4)cc3)c2c1", "note": "(relative stereo) [Example A497, cis-3-(4-(((1R,3S)-3-hydroxycyclohexyl)oxy)phenyl)-N-((1-morpholinocyclohexyl)methyl)-1H-indazole-5-carboxamide]", "values": [
      {"measurement": "IC50", "setting": "[1]", "result": "< 100", "unit": "nM"},
      {"measurement": "GI50", "setting": "[2]; [4]", "result": "100 to 500", "unit": "nM"},
      {"measurement": "GI50", "setting": "[3]; [5]", "result": "100 to 500", "unit": "nM"}
    ]},
    {"smiles": "CCC(CNC(=O)c1ccc2[nH]nc(-c3ccc(N4CCOCC4)cc3)c2c1)c1ccccc1", "note": "(stereo not drawn) [Example A407, 3-(4-morpholinophenyl)-N-(2-phenylbutyl)-1H-indazole-5-carboxamide]", "values": [
      {"measurement": "IC50", "setting": "[1]", "result": "< 100", "unit": "nM"},
      {"measurement": "GI50", "setting": "[2]; Homo sapiens, HCT-116", "result": "> 500", "unit": "nM"},
      {"measurement": "GI50", "setting": "[3]; Homo sapiens, PA-1", "result": "> 500", "unit": "nM"}
    ]},
    {"smiles": "CN1CCC(Oc2ccc(-c3n[nH]c4ccc(C(=O)NCC5(c6ccncc6)CCCCC5)cc34)cc2)CC1", "note": "[Example A480, 3-(4-((1-methylpiperidin-4-yl)oxy)phenyl)-N-((1-(pyridin-4-yl)cyclohexyl)methyl)-1H-indazole-5-carboxamide]", "values": [
      {"measurement": "IC50", "setting": "[1]", "result": "< 100", "unit": "nM"},
      {"measurement": "GI50", "setting": "[2]; [4]", "result": "100 to 500", "unit": "nM"},
      {"measurement": "GI50", "setting": "[3]; [5]", "result": "100 to 500", "unit": "nM"}
    ]},
    {"smiles": "O=C(NCC1(c2ccccc2)CCCCC1)c1ccc2[nH]nc(-c3ccc(N4CCOCC4)cc3)c2c1", "note": "[Example A469, 3-(4-morpholinophenyl)-N-((1-phenylcyclohexyl)methyl)-1H-indazole-5-carboxamide]", "values": [
      {"measurement": "IC50", "setting": "[1]", "result": "< 100", "unit": "nM"},
      {"measurement": "GI50", "setting": "[2]; [4]", "result": "100 to 500", "unit": "nM"},
      {"measurement": "GI50", "setting": "[3]; [5]", "result": "100 to 500", "unit": "nM"}
    ]},
    {"smiles": "CN1CCC(Oc2ccc(-c3n[nH]c4ccc(C(=O)NCC5(c6ccncc6)CCOCC5)cc34)cc2)CC1", "note": "[Example A478, 3-(4-((1-methylpiperidin-4-yl)oxy)phenyl)-N-((4-(pyridin-4-yl)tetrahydro-2H-pyran-4-yl)methyl)-1H-indazole-5-carboxamide]", "values": [
      {"measurement": "IC50", "setting": "[1]", "result": "< 100", "unit": "nM"},
      {"measurement": "GI50", "setting": "[2]; [4]", "result": "> 500", "unit": "nM"},
      {"measurement": "GI50", "setting": "[3]; [5]", "result": "> 500", "unit": "nM"}
    ]},
    {"smiles": "CN1CCC(Oc2ccc(-c3n[nH]c4ccc(C(=O)NCC5(c6ccccc6)CC5)cc34)cc2)CC1", "note": "[Example A471, 3-(4-((1-methylpiperidin-4-yl)oxy)phenyl)-N-((1-phenylcyclopropyl)methyl)-1H-indazole-5-carboxamide]", "values": [
      {"measurement": "IC50", "setting": "[1]", "result": "< 100", "unit": "nM"},
      {"measurement": "GI50", "setting": "[2]; [4]", "result": "100 to 500", "unit": "nM"},
      {"measurement": "GI50", "setting": "[3]; [5]", "result": "100 to 500", "unit": "nM"}
    ]}
  ]
}
